Values after ≈ are worked out from the molar mass of the structure shown.
Key:
[1] = Lyophilisation Solubility Assay (LYSA); type: physicochemical; details: aqueous buffer, thermodynamic from solid; 0.05 M phosphate buffer, pH 6.5; * = detection limit
Method: The solubility of compounds of present invention was assessed by LYSA assay. Samples were prepared in duplicate from 10 mM DMSO stock solutions (20 μL) diluted in 30 μL pure DMSO. After evaporation of DMSO with a centrifugal vacuum evaporator, the residue was dissolved in 0.05 M phosphate buffer (150 μL, pH 6.5), stirred for one hour and shook for two hours. After one night, the solution was filtered using a microtiter filter plate. Then the filtrate and its 1/10 dilution were analyzed by HPLC-UV. In addition a four-point calibration curve was prepared from the 10 mM stock solutions and used for the solubility determination of the compounds.

[2] = Cytotoxicity assay (HepG2, CellTiter-Blue); type: cell-based; details: human; HepG2 cells, 3 days treatment; * = detection limit
Method: The cytotoxicity of compounds of present invention was assessed by HepG2 assay. HepG2 cells (ATCC HB-8065™) were seeded into 96-well plates (1.2×10^4 cells per well) and treated with compounds for 3 days, cell viability was measured at day 3 post compound treatment using the CellTiter-Blue® Cell Viability Assay (Promega, Cat. No. G8082). 20 μL of Cell titer blue buffer were added to each well of the cells, incubated for 3 hours at 37° C., and the fluorescence value was measured by a plate reader (Molecular Device SpectraMax M2). The CC50 value of each compound is plotted with GraphPad Prism using four parameter logistic equation.

E. coli (BW25113) = assay: 50% growth inhibitory concentration (IC50) determination assay, E. coli; type: cell-based; details: Escherichia coli, BW25113; growth inhibition, Iso-Sensitest broth, OD 600 nm over 16 h; read-out: IC50 (μM) E. coli K12 BW25113
Method: (§1) The in vitro antimicrobial activity of the compounds against E. coli (BW25113, obtained from Coli Genetic Stock Center, #7636) and K. pneumoniae (ATCC10031) was determined according to the following procedure:
(§2) The assay used a 10-points Iso-Sensitest broth medium to measure quantitatively the in vitro activity of the compounds against E. coli BW25113 and K. pneumoniae ATCC 10031.
(§3) Stock compounds in DMSO were serially two-fold diluted (range from 50 to 0.097 μM final concentration) in 384 wells microtiter plates and inoculated with 49 μL the bacterial suspension in Iso-Sensitest broth medium to have a final cell concentration of ˜5×10^5 CFU/mL in a final volume/well of 50 μL/well. Microtiter plates were incubated at 35±2° C.
(§4) Bacterial cell growth was determined with the measurement of optical density at λ=600 nm each 20 minutes over a time course of 16 h.
(§5) Growth inhibition was calculated during the logarithmic growth of the bacterial cells with determination of the concentration inhibiting 50% (IC50) of the growth.

[3] = tested on: K. pneumoniae (ATCC10031); assay: 50% growth inhibitory concentration (IC50) determination assay, K. pneumoniae; type: cell-based; details: Klebsiella pneumoniae, ATCC10031; growth inhibition, Iso-Sensitest broth, OD 600 nm over 16 h; * = detection limit; read-out: IC50 (μM) K. pneumoniae ATCC10031
Method: as §1, §2, §3, §4, §5

E. coli (ATCC 25922) = assay: Minimal Inhibitory Concentration (MIC) assay; type: cell-based; details: Escherichia coli, ATCC25922; CAMHB, 20 hours at 35° C.; read-out: MIC (μg/mL) E. coli ATCC 25922
Method: The in vitro potency of compounds to inhibit E. coli (ATCC 25922) growth was assessed by MIC (Minimal Inhibitory Concentration) assay. Samples were prepared from 10 mM DMSO stock solutions. After serial 2-fold dilution in DMSO in a master plate (Greiner, Cat No: 651201), 180 μL sterile distilled water was added to 20 μL each aliquot of the samples. Then 10 μL diluted compounds were transferred into a new assay plate (Costar, 3599).
The growth medium […] Mueller Hinton Broth (CAMHB) was prepared by adding the 20 mg per liter CaCl2 and 20 mg per liter MgCl2 into the MHB medium (Jianglai Company, sterilized).
Vials of each of the test microorganisms were maintained frozen in the vapor phase of a liquid nitrogen freezer. Took out the bacteria E. coli ATCC 25922 (KWIKSTIK, 0335K) from liquid nitrogen freezer, thawed it in room temperature, and diluted the bacterial in the CAMHB medium to achieve a final inoculum of 5×10^5 CFU/mL, 90 μL CAMHB with bacteria was dispensed to the assay plate and pipetted 5 times.
Then the assay plates were incubated for 20 hours at 35° C. in ambient air. Following incubation, the MIC (μg/mL), the lowest concentration of drug that inhibits visible growth of the microorganism was read and recorded throw the microscope.

Row | Compound | solubility thermodynamic [1] | IC50 (E. coli (BW25113)) | IC50 [3] | MIC (E. coli (ATCC 25922)) | CC50 at 3 days [2]
1 | CCNc1cc(F)cc2c1[nH]c1ncc(-c3cnc(NC4CCNCC4)nc3)c(-n3ccc(C(F)(F)F)n3)c12 [Example 1.10, N-Ethyl-6-fluoro-3-[2-(4-piperidylamino)pyrimidin-5-yl]-4-[3-(trifluoromethyl)pyrazol-1-yl]-9H-pyrido[2,3-b]indol-8-amine] | 7.6 µg/mL (≈ 14.1 µM) |  |  |  | 
2 | CCNc1cc(F)cc2c1[nH]c1ncc(-c3cnc(NC4CCNC4)nc3)c(-n3ccc(C(F)(F)F)n3)c12 (stereo not shown) [Example 1.24, N-Ethyl-6-fluoro-3-[2-(pyrrolidin-3-ylamino)pyrimidin-5-yl]-4-[3-(trifluoromethyl)pyrazol-1-yl]-9H-pyrido[2,3-b]indol-8-amine] | 8.3 µg/mL (≈ 15.8 µM) |  |  |  | 11800 nM
3 | CCNc1cc(F)cc2c1[nH]c1ncc(-c3cncc(C#N)c3)c(-n3cc(CN)c(C(F)(F)F)n3)c12 [Example 1.26, 5-[4-[4-(Aminomethyl)-3-(trifluoromethyl)pyrazol-1-yl]-8-(ethylamino)-6-fluoro-9H-pyrido[2,3-b]indol-3-yl]pyridine-3-carbonitrile] | 32.5 µg/mL (≈ 65.7 µM) | 0.374 µM | ≤ 0.098 µM | 0.618 µg/mL (≈ 1.25 µM) | 
4 | CCNc1cc(F)cc2c1[nH]c1ncc(-c3cnc(OC)nc3)c(-n3nc(C#N)c4c3CNCC4)c12 [Example 1.39, 1-[8-(Ethylamino)-6-fluoro-3-(2-methoxypyrimidin-5-yl)-9H-pyrido[2,3-b]indol-4-yl]-4,5,6,7-tetrahydropyrazolo[3,4-c]pyridine-3-carbonitrile] | 42 µg/mL (≈ 86.9 µM) | 2.37 µM | ≤ 0.098 µM |  | 49000 nM
5 | CCNc1cc(F)cc2c1[nH]c1ncc(-c3cncc(CN)c3)c(-n3ccc(C(F)(F)F)n3)c12 [Example 1.45, 3-[5-(Aminomethyl)-3-pyridyl]-N-ethyl-6-fluoro-4-[3-(trifluoromethyl)pyrazol-1-yl]-9H-pyrido[2,3-b]indol-8-amine] | 16 µg/mL (≈ 34.1 µM) | 2.04 µM | ≤ 0.098 µM |  | 
6 | CCNc1cc(F)cc2c1[nH]c1ncc(-c3cnc(CN)nc3)c(-n3ccc(C(F)(F)F)n3)c12 [Example 1.46, 3-[2-(Aminomethyl)pyrimidin-5-yl]-N-ethyl-6-fluoro-4-[3-(trifluoromethyl)pyrazol-1-yl]-9H-pyrido[2,3-b]indol-8-amine] | 23 µg/mL (≈ 48.9 µM) | 0.77 µM | ≤ 0.098 µM |  | 27400 nM
7 | CNc1c(F)c(F)cc2c1[nH]c1ncc(-c3cncc(C#N)c3)c(-n3cc(CN)c(C(F)(F)F)n3)c12 [Example 1.49, 5-[4-[4-(Aminomethyl)-3-(trifluoromethyl)pyrazol-1-yl]-6,7-difluoro-8-(methylamino)-9H-pyrido[2,3-b]indol-3-yl]pyridine-3-carbonitrile] | 14 µg/mL (≈ 28.1 µM) | 0.698 µM | 0.098 µM | 0.359 µg/mL (≈ 0.72 µM) | 12800 nM
8 | CCNc1cc(F)cc2c1[nH]c1ncc(-c3cnc(OC4CCNCC4)nc3)c(-n3ccc(C(F)(F)F)n3)c12 [Example 1.53, N-ethyl-6-fluoro-3-[2-(4-piperidyloxy)pyrimidin-5-yl]-4-[3-(trifluoromethyl)pyrazol-1-yl]-9H-pyrido[2,3-b]indol-8-amine] | 21 µg/mL (≈ 38.9 µM) | 1.29 µM | 0.121 µM |  | 
9 | CCNc1cc(F)cc2c1[nH]c1ncc(-c3cnc(C4(C(=O)O)CC4)nc3)c(-n3ccc(C(F)(F)F)n3)c12 [Example 2.01, 1-[5-[8-(Ethylamino)-6-fluoro-4-[3-(trifluoromethyl)pyrazol-1-yl]-9H-pyrido[2,3-b]indol-3-yl]pyrimidin-2-yl]cyclopropanecarboxylic Acid] | 67 µg/mL (≈ 128 µM) |  |  |  | 38600 nM

Second part, led by results:

Row | solubility thermodynamic [1] | IC50 (E. coli (BW25113)) | IC50 [3] | MIC (E. coli (ATCC 25922)) | Compound | CC50 at 3 days [2]
10 | 148 µg/mL (≈ 289 µM) | 1.67 µM | 0.254 µM |  | CNc1cc(F)cc2c1[nH]c1ncc(-c3cnc(C4(C(=O)O)CC4)nc3)c(-n3ccc(C(F)(F)F)n3)c12 [Example 2.02, 1-[5-[6-Fluoro-8-(methylamino)-4-[3-(trifluoromethyl)pyrazol-1-yl]-9H-pyrido[2,3-b]indol-3-yl]pyrimidin-2-yl]cyclopropanecarboxylic acid] | 62600 nM
11 | 24 µg/mL (≈ 43.1 µM) |  |  |  | CCNc1cc(F)cc2c1[nH]c1ncc(-c3cnc(NCC(C)(C)C(=O)O)nc3)c(-n3ccc(C(F)(F)F)n3)c12 [Example 2.05, 3-[[5-[8-(Ethylamino)-6-fluoro-4-[3-(trifluoromethyl)pyrazol-1-yl]-9H-pyrido[2,3-b]indol-3-yl]pyrimidin-2-yl]amino]-2,2-dimethyl-propanoic acid] | 27600 nM
12 |  | 0.827 µM | 0.441 µM | 0.731 µg/mL (≈ 1.36 µM) | CCNc1cc(F)cc2c1[nH]c1ncc(-c3cncc(Cc4n[nH]c(=O)o4)c3)c(-n3ccc(C(F)(F)F)n3)c12 [Example 6.01, 5-[[5-[8-(ethylamino)-6-fluoro-4-[3-(trifluoromethyl)pyrazol-1-yl]-9H-pyrido[2,3-b]indol-3-yl]-3-pyridyl]methyl]-3H-1,3,4-oxadiazol-2-one] | 11400 nM
13 | < 1 µg/mL | 0.17 µM | ≤ 0.098 µM | 0.127 µg/mL (≈ 0.292 µM) | CNc1cc(F)cc2c1[nH]c1nc(Oc3cnc(C)nc3)nc(N3C[C@H]4C[C@@H]3C[C@H]4N)c12 [GP-6, reference compound] | 5600 nM

From US20210309658A1, “ARYL COMPOUNDS FOR THE TREATMENT AND PROPHYLAXIS OF BACTERIAL INFECTION” (Hoffmann-La Roche Inc., priority 2018, published 2021)
